Data from ChEMBL document CHEMBL1201862, “PubChem BioAssay data set” (2004).
Blank lines part the entries; values can stand above or below the compound they belong to. Active and inactive are the calls of the source.

What was measured:
[1] = Luminescence Cell-Based Dose Retest to Confirm Inhibitors of Cancer Stem Cells. [Related pubchem assays (depositor defined):AID2717, AID2721]; type: functional; conditions: Homo sapiens
[2] = viability loss of HMLE_sh_eGFP cells – cell-based, luminescence, counter-screen for HMLE_sh_ECad selective toxicity project, dose response (AID 463074); type: functional, Homo sapiens;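 note: HMLE human mammary epithelial cells expressing control shRNA against eGFP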
HEK293 [3] = assay: cells; conditions: Homo sapiens
HEK293 [4] = assay: cells; conditions: Homo sapiens; remark: listed apart in the source
[5] = HEK-293T cell viability reduction – luminescence, B-cell screen hits, cytotoxicity control for BCR NF-kB inhibitor project, dose response (AID 489021); type: functional, cell-based;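 note: HEK-293T cells carrying an NF-kB luciferase reporter; cells exposed to compound for about 14 hours before viability readout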
Jurkat [6] = assay: SAR Analysis of small molecule inhibitors of […] specific antigen receptor-induced NF-kB activation in a Jurkat cell line using a luminescence assay - Set 3. [Related pubchem assays (depositor defined):AID435022, AID435025, AID465]; type: functional, cell-based; conditions: Homo sapiens
HEK293 [7] = assay: SAR Analysis of small molecule inhibitors of B-cell specific antigen receptor-induced NF-kB activation in a HEK-293T cell line using a luminescence assay - Set 2. [Related pubchem assays (depositor defined):AID435022, AID435025, AID489021]; type: functional, cell-based; conditions: Homo sapiens
HEK293 [8] = assay: HEK293T cell viability loss, resazurin readout – resazurin fluorescence, cytotoxicity control for NF-kB activator project, SAR follow-up (AID 493251); type: functional, cell-based; conditions: Homo sapiens, HEK293
[9] = Trypanosoma cruzi growth suppression in host cells – NIH3T3 host cells, beta-gal luminescence, confirmation (AID 2044); type: functional, cell-based;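 note: intracellular parasites grown in NIH/3T3 mouse fibroblasts as host cells; luminescent beta-galactosidase reporter signal from transgenic T. cruzi replicating inside host cells; inhibitors lower the luminescence signal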
[10] = NIH3T3 cell viability loss – ATP luminescence, mouse fibroblasts, counter-screen, dose response (AID 2010); type: functional, cell-based;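 note: cells exposed to compound for about 90 hours before reading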
Beta-galactosidase = Beta-galactosidase (Escherichia coli, UniProt Q8VNN2); assay: detection-enzyme interference by beta-gal modulators – biochemical, E. coli enzyme, set 3, artefact control for CCR6 antagonist project, dose response (AID 504712); type: functional
Apelin receptor = Apelin receptor (Homo sapiens, UniProt P35414); assay: apelin receptor antagonists, arrestin read-out – cell-based, luminescent, enzyme-fragment complementation, selectivity assay for CCR6 antagonist project, SAR follow-up (AID 588359); type: functional
Apelin receptor, sequence (P35414 whole entry, the tested form may be a part): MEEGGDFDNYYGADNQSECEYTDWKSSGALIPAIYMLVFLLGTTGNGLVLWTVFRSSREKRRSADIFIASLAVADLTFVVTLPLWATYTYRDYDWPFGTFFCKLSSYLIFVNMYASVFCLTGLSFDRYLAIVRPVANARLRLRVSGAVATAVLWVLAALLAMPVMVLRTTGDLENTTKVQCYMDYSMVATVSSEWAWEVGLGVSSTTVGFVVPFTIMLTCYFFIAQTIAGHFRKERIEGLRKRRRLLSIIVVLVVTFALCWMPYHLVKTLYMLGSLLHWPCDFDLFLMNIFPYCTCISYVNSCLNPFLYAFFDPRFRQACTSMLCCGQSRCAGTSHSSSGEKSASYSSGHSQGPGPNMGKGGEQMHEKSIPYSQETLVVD

[11] = molecular target: T1, Calpain-2 catalytic subunit (Sus scrofa, UniProt P43367); assay: m-calpain protease blockers, concentration series – biochemical, fluorogenic peptide substrate, dose response (AID 1420); type: functional
T1 sequence (P43367 whole entry): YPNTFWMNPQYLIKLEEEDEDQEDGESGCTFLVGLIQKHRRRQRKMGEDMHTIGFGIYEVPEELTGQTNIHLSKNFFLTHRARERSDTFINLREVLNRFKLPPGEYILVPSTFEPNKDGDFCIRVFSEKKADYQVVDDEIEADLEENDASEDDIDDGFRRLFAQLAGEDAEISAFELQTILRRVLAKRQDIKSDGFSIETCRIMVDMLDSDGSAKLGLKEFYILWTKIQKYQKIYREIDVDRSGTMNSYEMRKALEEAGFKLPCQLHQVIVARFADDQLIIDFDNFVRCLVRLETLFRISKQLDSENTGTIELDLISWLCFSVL

[12] = molecular target: Intestinal-type alkaline phosphatase (Mus musculus, UniProt P24822); assay: PubChem AID 488785; type: functional
Intestinal-type alkaline phosphatase (Mus musculus, UniProt P24822), sequence (P24822 whole entry): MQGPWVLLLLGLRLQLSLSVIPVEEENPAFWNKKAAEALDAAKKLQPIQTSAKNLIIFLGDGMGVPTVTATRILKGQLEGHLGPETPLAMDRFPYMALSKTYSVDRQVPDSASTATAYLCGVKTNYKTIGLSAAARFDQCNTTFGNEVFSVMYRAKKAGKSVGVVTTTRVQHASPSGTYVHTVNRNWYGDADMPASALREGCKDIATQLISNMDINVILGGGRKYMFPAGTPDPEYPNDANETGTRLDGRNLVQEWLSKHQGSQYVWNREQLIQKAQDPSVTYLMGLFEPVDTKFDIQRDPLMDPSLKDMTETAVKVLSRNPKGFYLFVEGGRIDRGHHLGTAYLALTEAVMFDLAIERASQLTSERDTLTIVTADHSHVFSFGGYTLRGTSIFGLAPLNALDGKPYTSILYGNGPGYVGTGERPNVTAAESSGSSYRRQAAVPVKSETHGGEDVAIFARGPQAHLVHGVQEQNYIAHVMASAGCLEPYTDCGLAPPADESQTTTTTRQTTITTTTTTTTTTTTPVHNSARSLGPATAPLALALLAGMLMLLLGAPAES

[13] = molecular target: T2, Alkaline phosphatase, tissue-nonspecific isozyme (Homo sapiens, UniProt P05186); assay: TNAP enzyme inhibition by screening hits, dose response, selectivity assay for mouse IAP inhibitor project, biochemical, human TNAP, uHTS hits (AID 488906); type: functional
T2 sequence (P05186 whole entry): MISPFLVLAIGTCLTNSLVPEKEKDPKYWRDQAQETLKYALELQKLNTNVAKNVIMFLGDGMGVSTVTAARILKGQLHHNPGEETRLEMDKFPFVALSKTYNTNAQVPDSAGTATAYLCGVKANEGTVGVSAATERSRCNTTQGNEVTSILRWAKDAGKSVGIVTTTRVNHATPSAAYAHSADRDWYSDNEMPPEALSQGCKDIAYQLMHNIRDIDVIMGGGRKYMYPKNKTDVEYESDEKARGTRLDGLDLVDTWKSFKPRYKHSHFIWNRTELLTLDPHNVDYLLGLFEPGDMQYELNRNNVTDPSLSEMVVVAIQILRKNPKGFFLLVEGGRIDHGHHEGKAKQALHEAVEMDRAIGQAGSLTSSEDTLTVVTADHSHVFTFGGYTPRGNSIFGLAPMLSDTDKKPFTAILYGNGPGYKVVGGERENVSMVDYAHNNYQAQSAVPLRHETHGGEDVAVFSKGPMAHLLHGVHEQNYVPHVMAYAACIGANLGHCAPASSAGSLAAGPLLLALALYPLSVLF

[14] = molecular target: Intestinal-type alkaline phosphatase (Homo sapiens, UniProt P09923); assay: inhibition of human intestinal alkaline phosphatase – biochemical, dose response (AID 488876); type: functional
Intestinal-type alkaline phosphatase (Homo sapiens, UniProt P09923), sequence (P09923 whole entry): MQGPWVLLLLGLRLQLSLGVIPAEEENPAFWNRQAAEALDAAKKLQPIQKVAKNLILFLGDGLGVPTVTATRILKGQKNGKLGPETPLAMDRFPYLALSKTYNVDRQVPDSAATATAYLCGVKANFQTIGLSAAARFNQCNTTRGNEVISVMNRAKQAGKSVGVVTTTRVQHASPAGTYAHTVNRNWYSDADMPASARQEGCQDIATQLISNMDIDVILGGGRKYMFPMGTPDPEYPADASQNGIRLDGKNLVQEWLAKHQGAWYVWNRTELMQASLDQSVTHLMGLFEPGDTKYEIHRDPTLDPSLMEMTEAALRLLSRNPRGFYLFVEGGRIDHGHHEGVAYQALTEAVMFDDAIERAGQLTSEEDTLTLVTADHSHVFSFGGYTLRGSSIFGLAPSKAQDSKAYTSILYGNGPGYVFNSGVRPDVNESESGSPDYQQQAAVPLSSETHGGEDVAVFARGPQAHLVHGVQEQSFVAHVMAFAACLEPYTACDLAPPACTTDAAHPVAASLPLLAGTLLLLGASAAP

Troponin, cardiac muscle = Troponin, cardiac muscle (Homo sapiens, UniProt P19429+P45379+P63316); assay: Fluorescence-based biochemical high throughput dose response assay for activators of the calcium sensitivity of cardiac Regulated Thin Filaments (RTF). [Related pubchem assays (depositor defined):AID493008, AID493018, AID504382, AID504383]; type: protein-complex assay
Cysteine protease ATG4B = molecular target: T3, Cysteine protease ATG4B (Homo sapiens, UniProt Q9Y4P1); type: functional;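 note: Fluorescence-based dose-response confirmation assay measuring inhibition of ATG4B activity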
T3 sequence (Q9Y4P1 whole entry): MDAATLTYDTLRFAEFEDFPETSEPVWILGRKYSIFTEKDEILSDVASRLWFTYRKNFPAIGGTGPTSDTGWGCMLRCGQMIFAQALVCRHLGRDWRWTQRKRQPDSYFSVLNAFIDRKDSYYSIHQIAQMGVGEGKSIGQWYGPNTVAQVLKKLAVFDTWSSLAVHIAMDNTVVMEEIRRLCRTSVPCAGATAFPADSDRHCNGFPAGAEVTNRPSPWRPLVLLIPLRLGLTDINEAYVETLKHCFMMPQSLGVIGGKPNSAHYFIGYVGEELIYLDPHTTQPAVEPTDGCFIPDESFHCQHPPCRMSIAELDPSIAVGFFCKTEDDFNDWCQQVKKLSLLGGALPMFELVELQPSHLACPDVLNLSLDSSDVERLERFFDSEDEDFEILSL

[15] = molecular target: T4, Microphthalmia-associated transcription factor (Homo sapiens, UniProt O75030); assay: reducers of TRPM1 reporter luminescence, concentration series – cell-based, SK-MEL-5, cherry-picked, set 3, MITF inhibitor project, dose response (AID 493073); type: functional;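 note: SK-MEL-5 melanoma cells with luciferase driven by the MITF target TRPM1 promoter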
T4 sequence (O75030 whole entry): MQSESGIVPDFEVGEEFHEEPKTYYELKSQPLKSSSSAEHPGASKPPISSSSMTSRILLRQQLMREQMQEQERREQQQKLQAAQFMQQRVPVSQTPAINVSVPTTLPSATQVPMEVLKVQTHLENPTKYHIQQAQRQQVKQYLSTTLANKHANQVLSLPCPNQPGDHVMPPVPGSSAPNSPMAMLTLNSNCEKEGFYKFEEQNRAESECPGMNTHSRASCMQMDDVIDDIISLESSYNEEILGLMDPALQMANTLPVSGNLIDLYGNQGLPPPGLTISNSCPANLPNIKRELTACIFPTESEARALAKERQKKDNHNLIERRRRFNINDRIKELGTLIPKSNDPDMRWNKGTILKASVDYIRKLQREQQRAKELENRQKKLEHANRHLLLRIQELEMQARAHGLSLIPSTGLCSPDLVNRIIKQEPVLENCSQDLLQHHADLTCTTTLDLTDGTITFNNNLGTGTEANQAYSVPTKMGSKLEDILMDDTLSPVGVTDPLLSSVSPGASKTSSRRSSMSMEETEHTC

Phospholipase A2 = Phospholipase A2 (Homo sapiens, UniProt P04054); type: functional;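 note: confirmatory dose-response counterscreen on phospholipase A2, testing hits that came from an ultra-high-throughput screen for ATG4B inhibitors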
Phospholipase A2, sequence (P04054 whole entry): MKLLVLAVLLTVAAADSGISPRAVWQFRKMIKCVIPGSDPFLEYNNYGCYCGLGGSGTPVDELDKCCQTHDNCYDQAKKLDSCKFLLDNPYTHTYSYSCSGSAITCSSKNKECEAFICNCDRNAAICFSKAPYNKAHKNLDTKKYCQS

A-375 [16] = assay: MITF: Counter assay: A375 proliferation Measured in Cell-Based System Using Plate Reader - 2084-03_Inhibitor_Dose_DryPowder_Activity. [Related pubchem assays (depositor defined):AID488944]; type: functional; conditions: Homo sapiens
A-375 [17] = assay: proliferation inhibition in MITF-low A375 cells – cell-based, cherry-pick samples, set 2, counter-screen for MITF modulator project, dose response (AID 540335); type: functional; conditions: Homo sapiens
[18] = molecular target: Voltage-dependent T-type calcium channel subunit alpha-1H (Homo sapiens, UniProt O95180); assay: inhibition of CACNA1H calcium flux – cell-based, SynthLib3 library, HEK293 Cav3.2, fluorescence (AID 493041); type: functional
Voltage-dependent T-type calcium channel subunit alpha-1H, sequence (O95180 whole entry): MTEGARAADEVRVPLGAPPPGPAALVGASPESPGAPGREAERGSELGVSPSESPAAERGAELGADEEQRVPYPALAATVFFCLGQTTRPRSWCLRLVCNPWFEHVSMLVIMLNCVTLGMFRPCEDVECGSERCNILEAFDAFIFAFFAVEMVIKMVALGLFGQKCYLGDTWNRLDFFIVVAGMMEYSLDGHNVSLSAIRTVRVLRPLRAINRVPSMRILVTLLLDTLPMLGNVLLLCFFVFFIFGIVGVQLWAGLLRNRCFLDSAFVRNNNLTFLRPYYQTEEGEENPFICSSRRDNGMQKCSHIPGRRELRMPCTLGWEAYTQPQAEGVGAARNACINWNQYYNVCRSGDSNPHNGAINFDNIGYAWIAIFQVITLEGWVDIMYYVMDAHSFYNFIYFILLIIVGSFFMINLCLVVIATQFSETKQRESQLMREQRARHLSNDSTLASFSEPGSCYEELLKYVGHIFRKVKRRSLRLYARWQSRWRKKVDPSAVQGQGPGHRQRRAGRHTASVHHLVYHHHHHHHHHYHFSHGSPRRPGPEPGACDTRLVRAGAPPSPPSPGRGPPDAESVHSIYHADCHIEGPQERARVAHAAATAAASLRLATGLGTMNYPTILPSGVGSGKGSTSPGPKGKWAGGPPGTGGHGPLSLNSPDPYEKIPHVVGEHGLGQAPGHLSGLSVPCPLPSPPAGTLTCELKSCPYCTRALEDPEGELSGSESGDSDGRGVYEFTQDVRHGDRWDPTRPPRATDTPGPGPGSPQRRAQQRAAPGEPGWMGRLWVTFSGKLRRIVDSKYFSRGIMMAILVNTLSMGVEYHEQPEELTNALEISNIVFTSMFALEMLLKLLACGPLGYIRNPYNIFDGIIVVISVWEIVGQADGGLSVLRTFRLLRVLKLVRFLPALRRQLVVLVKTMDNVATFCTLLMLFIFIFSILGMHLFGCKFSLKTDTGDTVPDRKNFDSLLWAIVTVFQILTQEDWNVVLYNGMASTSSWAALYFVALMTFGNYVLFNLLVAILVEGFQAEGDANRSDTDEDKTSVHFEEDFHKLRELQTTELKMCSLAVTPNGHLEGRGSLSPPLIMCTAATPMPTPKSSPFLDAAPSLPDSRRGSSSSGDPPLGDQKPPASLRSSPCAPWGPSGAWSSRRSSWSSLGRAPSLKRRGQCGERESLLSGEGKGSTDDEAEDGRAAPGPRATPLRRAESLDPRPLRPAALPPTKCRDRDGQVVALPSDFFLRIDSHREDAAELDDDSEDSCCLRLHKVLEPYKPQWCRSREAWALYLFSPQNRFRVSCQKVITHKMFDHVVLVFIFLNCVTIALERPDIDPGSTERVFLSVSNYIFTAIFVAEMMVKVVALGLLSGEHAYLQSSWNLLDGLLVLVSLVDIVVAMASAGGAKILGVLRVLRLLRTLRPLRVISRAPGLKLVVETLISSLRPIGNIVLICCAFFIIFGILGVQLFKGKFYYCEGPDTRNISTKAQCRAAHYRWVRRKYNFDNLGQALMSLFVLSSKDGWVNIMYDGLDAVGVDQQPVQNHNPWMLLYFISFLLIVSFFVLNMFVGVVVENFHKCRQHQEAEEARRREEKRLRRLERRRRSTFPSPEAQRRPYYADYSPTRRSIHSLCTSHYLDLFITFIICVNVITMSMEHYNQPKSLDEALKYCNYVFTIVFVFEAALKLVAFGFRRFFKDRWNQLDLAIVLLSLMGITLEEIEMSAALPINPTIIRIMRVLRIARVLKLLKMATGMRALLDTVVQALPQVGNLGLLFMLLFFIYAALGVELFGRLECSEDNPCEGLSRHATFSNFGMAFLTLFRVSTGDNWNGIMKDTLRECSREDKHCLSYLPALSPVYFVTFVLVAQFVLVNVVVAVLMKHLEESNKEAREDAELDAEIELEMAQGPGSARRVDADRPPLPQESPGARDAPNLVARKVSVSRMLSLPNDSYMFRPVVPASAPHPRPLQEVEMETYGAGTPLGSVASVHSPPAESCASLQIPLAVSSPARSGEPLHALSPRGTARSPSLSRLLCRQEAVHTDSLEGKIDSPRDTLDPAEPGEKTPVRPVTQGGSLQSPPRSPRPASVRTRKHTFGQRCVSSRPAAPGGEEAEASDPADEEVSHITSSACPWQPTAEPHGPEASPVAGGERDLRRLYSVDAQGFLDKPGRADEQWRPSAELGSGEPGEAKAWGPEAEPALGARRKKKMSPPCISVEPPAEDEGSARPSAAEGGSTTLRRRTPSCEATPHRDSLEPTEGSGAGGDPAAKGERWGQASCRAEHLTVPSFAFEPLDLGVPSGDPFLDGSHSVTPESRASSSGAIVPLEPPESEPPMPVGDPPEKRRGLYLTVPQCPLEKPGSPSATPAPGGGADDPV

Jurkat [19] = assay: blockers of NF-kB activation in T cells – Jurkat, luciferase reporter, luminescence, B- and T-cell, dose response (AID 489004); type: functional, cell-based; conditions: Homo sapiens;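 note: NF-kB luciferase reporter Jurkat cells stimulated with PMA plus ionomycin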
[20] = HEK-293T viability loss, compound-treated – cell-based, uHTS hits, cytotoxicity control for B/T-cell NF-kB inhibitor project, dose response (AID 489019); type: functional;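 note: IC50 reflects cytotoxicity as loss of cell viability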
[21] = molecular target: Potassium voltage-gated channel subfamily KQT member 2 (Rattus norvegicus, UniProt O88943); assay: rat KCNQ2 current potentiators – automated patch clamp, KCNQ2-CHO cells, SAR follow-up (AID 493113); type: functional
Potassium voltage-gated channel subfamily KQT member 2, sequence (O88943 whole entry): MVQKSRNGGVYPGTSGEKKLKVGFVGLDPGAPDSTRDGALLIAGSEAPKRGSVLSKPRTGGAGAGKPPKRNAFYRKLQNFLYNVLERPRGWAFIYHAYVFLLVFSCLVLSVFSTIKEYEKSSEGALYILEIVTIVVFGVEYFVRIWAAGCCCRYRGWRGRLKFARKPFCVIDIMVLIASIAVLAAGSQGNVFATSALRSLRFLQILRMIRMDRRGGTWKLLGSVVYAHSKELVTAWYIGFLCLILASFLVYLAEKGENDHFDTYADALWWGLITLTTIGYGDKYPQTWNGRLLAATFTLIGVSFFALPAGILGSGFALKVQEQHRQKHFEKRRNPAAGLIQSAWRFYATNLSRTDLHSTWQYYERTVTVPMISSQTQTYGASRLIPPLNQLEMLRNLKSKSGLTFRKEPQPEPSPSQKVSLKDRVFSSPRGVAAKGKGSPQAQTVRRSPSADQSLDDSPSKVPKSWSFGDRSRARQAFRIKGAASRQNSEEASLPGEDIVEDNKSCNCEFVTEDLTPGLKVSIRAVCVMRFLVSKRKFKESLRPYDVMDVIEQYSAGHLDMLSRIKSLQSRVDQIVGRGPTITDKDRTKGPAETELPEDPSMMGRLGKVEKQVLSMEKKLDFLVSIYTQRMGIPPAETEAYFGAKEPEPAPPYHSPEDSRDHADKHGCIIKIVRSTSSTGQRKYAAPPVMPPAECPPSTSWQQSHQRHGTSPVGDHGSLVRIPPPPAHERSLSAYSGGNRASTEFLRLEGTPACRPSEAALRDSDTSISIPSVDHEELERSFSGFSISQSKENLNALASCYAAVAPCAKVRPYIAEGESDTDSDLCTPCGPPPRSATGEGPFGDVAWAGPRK

SMILES: COc1cc(-c2noc(C)c2C#Cc2ccc(N)cc2)cc(OC)c1OC
AC50 [1]: 0.219 µM (active)
AC50 [2]: 8 µM (inconclusive)

SMILES: C=CCO/C(O)=C1\C(C)=NC(SCC(=O)Nc2nccs2)=C(C#N)C1c1ccc(Cl)cc1 (stereo unspecified)
EC50 (HEK293 [3]): > 59.6 µM (inactive)
EC50 (HEK293 [4]): > 59.6 µM (inactive)

SMILES: CSc1ccc(-c2nc(CSCC(=O)NC3CC3)c(C)o2)cc1
IC50 [5]: > 80 µM (inactive)
IC50 (Jurkat [6]): > 80 µM (inactive)
IC50 (HEK293 [7]): 49.7 µM (inactive)
IC50 (HEK293 [8]): > 80 µM (inactive)

SMILES: O=C(CSc1cccc2cccnc12)Nc1ccc(S(=O)(=O)N2CCOCC2)cc1
EC50 [9]: 1.58 µM (active)
EC50 [10]: 7.88 µM (active)
IC50 (Beta-galactosidase): > 66.6 µM (inactive)
IC50 (Apelin receptor): 11 µM (active)

IC50 [11]: 2.69 µM (not active)
IC50 [12]: 12.2 µM (active)
IC50 [13]: > 100 µM (inactive)
IC50 [14]: > 100 µM (inactive)
SMILES: O=C(Nc1ccc(Cl)cc1)NC1CCCCC1Cc1ccco1 (stereo unspecified)

SMILES: Cc1cc(C=C2C(=O)c3ccccc3C2=O)c(C)n1-c1ccccc1
EC50 (Troponin, cardiac muscle): > 7.94 µM (active)
IC50 (Cysteine protease ATG4B): 11 µM (active)
AC50 [15]: 3.78 µM (active)
IC50 (Phospholipase A2): 6.96 µM (active)
AC50 (A-375 [16]): > 11 µM (active)
AC50 (A-375 [17]): > 11 µM (active)

EC50 [18]: 6.4 µM (active)
SMILES: O=C(NC1CCC2CN(CC3CCCC3)CC21)c1cc(Cl)cc(Cl)c1 (stereo unspecified)

SMILES: O=C(NCCNCCO)C1(C(F)(F)F)C/C(=C\CCO)CCCO1 (stereo unspecified)
IC50 (Jurkat [19]): > 80 µM (inactive)
IC50 [20]: > 80 µM (inactive)

EC50 [21]: 0.22 µM (active)
SMILES: Cc1ccc(NC(=O)C2CC3CCC2C3)c(C)c1 (stereo unspecified)
